“Also recorded” adds a separate entry of the source. Read-outs that look alike come from different tables or passages of the source.
Key:
CD34+ cells [1] = assay: NK cell expansion from CD34+ cells in three-stage culture with compound; assay type: cell-based, human; conditions: for support of NK expansion (and differentiation) / cell expansion compared to SR1: compound 10 μM during first 14 days, Day 35; for cell expansion compared to SR1: SR1 10 μM positive control; for expansion, differentiation and cytotoxicity profile versus SR1: PNK-007 culture
Text: (§1) UCB CD34+ cells were cultivated in presence of cytokines including thrombopoietin, SCF, Flt3 ligand, IL-7, IL-15 and IL-2 for 35 days to produce three-stage NK cells, as described in Example 1. Multi-color flow cytometry was used to determine the phenotypic characteristics of three-stage NK cells.
(§2) For biological testing, the compounds were provided to culture to evaluate their effects on NK cell expansion and differentiation. Specifically, donors of CD34+ cells (StemCell Technology) were thawed and expanded in vitro following NK culture protocol. During the first 14 days of the culture, each CRL compounds was dissolved in DMSO and added to the culture at 10 μM concentration. SR1 (at 10 μM) served as a positive control compound, while DMSO alone without any compound served as a negative control. At the end of the culture on Day 35, cell expansion, natural killer (NK) cell differentiation and cytotoxicity of the cells against K562 tumor cell line were characterized. Due to the large number of the compounds, the testing was performed in two experiments, CRL1-11 and CRL 12-22. The same donors were used for each experiment. Positive and negative controls were also included in both experiments.

CD34+ cells [2] = assay: NK cell differentiation of compound cultured cells (flow cytometry); assay type: cell-based, human; conditions: compared to SR1
Text: as §1, §2

K562 tumor cells = assay: Cytotoxicity assay of compound cultured cells against K562 tumor cells; assay type: cell-based; conditions: 10:1 E:T ratio, both donors
Method: as §2
Cytotoxicity assay was run using compound cultured cells against K562 tumor cells at 10:1 effector to target ratio (FIG. 5) to evaluate cell functions.

CD34 cells = assay: CD34 cell expansion at Day 14 of the culture; assay type: cell-based, human; conditions: compound 10 μM
Method: as §2

multiple myeloma = conditions: cited from earlier work

Structure (SMILES)	support of NK expansion (and differentiation) (CD34+ cells [1])	cell expansion compared to SR1 (CD34+ cells [1])	CD56+/CD11a+ subpopulation (CD34+ cells [2])	killing activity compared to cells cultured with SR1 (K562 tumor cells)	expansion, differentiation and cytotoxicity profile versus SR1 (CD34+ cells [1])	CD34 cell expansion (CD34 cells)	other results
CCC(C)Nc1cc(-c2cncc(C#N)c2)nc(NCCc2c[nH]c3ccccc23)n1 (stereo not drawn) [CRL7, 5-(2-((2-(1H-indol-3-yl)ethyl)amino)-6-(sec-butylamino)pyrimidin-4-yl)nicotinonitrile]	Except for CRL7 and CRL13, the rest of the compounds all resulted in a NK expansion; also recorded: all the compounds except CRL7 and CRL13 supported PNK-007 expansion and differentiation	–	–	–	–	–	–
CCC(C)Nc1nc(NCCc2c[nH]c3ccccc23)c2ccccc2n1 (stereo not drawn) [CRL13, N^4-(2-(1H-indol-3-yl)ethyl)-N^2-(sec-butyl)quinazoline-2,4-diamine]	Except for CRL7 and CRL13, the rest of the compounds all resulted in a NK expansion; also recorded: all the compounds except CRL7 and CRL13 supported PNK-007 expansion and differentiation	–	–	–	–	–	–
CC(C)c1csc2c(NCCc3c[nH]c4ccccc34)nc(-c3cncc(C#N)c3)nc12 [CRL17, 5-(4-((2-(1H-indol-3-yl)ethyl)amino)-7-isopropylthieno[3,2-d]pyrimidin-2-yl)nicotinonitrile]	–	slightly less expansion compared to SR1	increased CD56+/CD11a+ subpopulation	increased killing activities	–	–	–
CC(C)c1csc2c(NCCc3c[nH]c4ccccc34)nc(-c3cncc(F)c3)nc12 [CRL18, N-(2-(1H-indol-3-yl)ethyl)-2-(5-fluoropyridin-3-yl)-7-isopropylthieno[3,2-d]pyrimidin-4-amine]	–	slightly less expansion compared to SR1	increased CD56+/CD11a+ subpopulation	increased killing activities	–	–	–
Fc1cncc(-c2nc(NCCc3c[nH]c4ccccc34)c3occc3n2)c1 [CRL19, N-(2-(1H-indol-3-yl)ethyl)-2-(5-fluoropyridin-3-yl)furo[3,2-d]pyrimidin-4-amine]	supported cell expansion the best	–	–	–	very similar expansion, differentiation and cytotoxicity profiles as SR1	achieved the highest CD34 cell expansion	–
Cc1cncc(-c2nc(NCCc3c[nH]c4ccccc34)c3occc3n2)c1 [CRL20, N-(2-(1H-indol-3-yl)ethyl)-2-(5-methylpyridin-3-yl)furo[3,2-d]pyrimidin-4-amine]	supported cell expansion the best	–	–	–	very similar expansion, differentiation and cytotoxicity profiles as SR1	achieved the highest CD34 cell expansion	–
Cc1cncc(-c2nc(NCCc3c[nH]c4ccccc34)c3scc(C(C)C)c3n2)c1 [CRL21, N-(2-(1H-indol-3-yl)ethyl)-7-isopropyl-2-(5-methylpyridin-3-yl)thieno[3,2-d]pyrimidin-4-amine]	–	slightly less expansion compared to SR1	increased CD56+/CD11a+ subpopulation	increased killing activities	–	–	–
N#Cc1cncc(-c2nc(NCCc3c[nH]c4ccccc34)c3occc3n2)c1 [CRL22, 5-(4-((2-(1H-indol-3-yl)ethyl)amino)furo[3,2-d]pyrimidin-2-yl)nicotinonitrile]	supported cell expansion the best	–	–	–	very similar expansion, differentiation and cytotoxicity profiles as SR1	achieved the highest CD34 cell expansion	–
Nc1cccc2c1CN(C1CCC(=O)NC1=O)C2=O (stereo not drawn) [lenalidomide, 3-(4′aminoisoindoline-1′-one)-1-piperidine-2,6-dione]	–	–	–	–	–	–	ORR (VGPR or better) (multiple myeloma; 1 year post ASCT): 48%; ORR (VGPR or better) (multiple myeloma; 2 year post ASCT): 36%; hazard ratio (TTP, vs placebo) (multiple myeloma; 95% CI 0.46-0.71): 0.57; median TTP (multiple myeloma; not accounting for crossover): 57.3 months

From patent publication US20220273716A1, “POPULATIONS OF NATURAL KILLER CELLS COMPRISING A CD38 CHIMERIC ANTIGEN RECEPTOR” (Celularity Inc., priority 2019, published 2022)
